Measured values published in patent US6258811A, “Methods for preventing, inhibiting or treating graft rejection reactions in graft-versus-host disease (GVHD) and organ transplantation” (Eisai Co., Ltd., priority 1996, dated 2001).

Legend:
RAR-α = biological target: T1, RAR-α (Homo sapiens, UniProt P10276); assay: RAR-mediated transcriptional promotion activity, RAR-α; type: cell-based; details: ED30 of all-trans-retinoic acid taken as 1; 3 μM all-trans-retinoic acid = 100%
T1 sequence (P10276 1-462): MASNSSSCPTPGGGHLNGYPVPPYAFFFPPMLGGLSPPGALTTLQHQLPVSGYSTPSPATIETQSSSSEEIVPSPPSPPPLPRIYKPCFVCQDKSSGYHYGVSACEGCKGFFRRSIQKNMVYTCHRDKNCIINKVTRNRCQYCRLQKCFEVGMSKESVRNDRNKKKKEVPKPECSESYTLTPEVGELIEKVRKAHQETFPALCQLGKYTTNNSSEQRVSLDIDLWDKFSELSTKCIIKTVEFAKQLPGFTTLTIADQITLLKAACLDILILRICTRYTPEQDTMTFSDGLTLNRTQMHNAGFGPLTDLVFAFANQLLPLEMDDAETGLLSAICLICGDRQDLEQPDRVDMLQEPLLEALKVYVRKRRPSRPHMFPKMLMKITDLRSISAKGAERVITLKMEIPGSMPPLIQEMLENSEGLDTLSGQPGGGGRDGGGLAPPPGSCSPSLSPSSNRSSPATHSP
Text: (§1) Retinoic acid receptor (RAR) binding assay and RAR-mediated transcriptional promotion activity of compound represented by formula (I): […]

RAR-β [1] = biological target: T2, RAR-β (Homo sapiens, UniProt P10826); assay: RAR-mediated transcriptional promotion activity, RAR-β; type: cell-based; details: ED30 of all-trans-retinoic acid taken as 1; 3 μM all-trans-retinoic acid = 100%
T2 sequence (P10826 1-455): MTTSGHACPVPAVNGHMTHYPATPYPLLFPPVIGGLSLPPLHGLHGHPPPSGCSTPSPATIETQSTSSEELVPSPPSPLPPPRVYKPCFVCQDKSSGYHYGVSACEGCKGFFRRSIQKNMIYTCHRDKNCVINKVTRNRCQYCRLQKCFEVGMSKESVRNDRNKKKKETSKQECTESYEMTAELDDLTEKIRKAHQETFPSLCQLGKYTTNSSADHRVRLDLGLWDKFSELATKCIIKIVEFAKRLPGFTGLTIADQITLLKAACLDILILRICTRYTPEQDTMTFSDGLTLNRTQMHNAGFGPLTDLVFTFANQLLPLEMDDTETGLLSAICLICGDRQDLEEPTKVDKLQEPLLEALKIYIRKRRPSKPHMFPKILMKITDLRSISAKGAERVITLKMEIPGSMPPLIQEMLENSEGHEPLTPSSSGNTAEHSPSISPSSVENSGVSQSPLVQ
Text: as §1

RAR-γ = biological target: T3, RAR-γ (Homo sapiens, UniProt P13631); assay: RAR-mediated transcriptional promotion activity, RAR-γ; type: cell-based; details: ED30 of all-trans-retinoic acid taken as 1; 3 μM all-trans-retinoic acid = 100%
T3 sequence (P13631 1-454): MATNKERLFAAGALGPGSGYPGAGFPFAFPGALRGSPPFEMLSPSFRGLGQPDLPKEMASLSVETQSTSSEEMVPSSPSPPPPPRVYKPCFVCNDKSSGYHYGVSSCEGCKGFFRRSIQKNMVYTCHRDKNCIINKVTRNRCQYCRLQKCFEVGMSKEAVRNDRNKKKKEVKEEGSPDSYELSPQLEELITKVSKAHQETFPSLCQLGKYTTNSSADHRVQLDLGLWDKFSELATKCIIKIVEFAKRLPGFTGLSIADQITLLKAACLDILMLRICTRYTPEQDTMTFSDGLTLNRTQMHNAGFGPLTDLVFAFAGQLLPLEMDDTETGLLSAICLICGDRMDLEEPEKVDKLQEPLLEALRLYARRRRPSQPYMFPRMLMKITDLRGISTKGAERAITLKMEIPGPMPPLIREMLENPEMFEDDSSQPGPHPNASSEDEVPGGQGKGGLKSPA
Text: as §1

rat adjuvant arthritis = details: Science 221, 756, 1983; cited from earlier work
patients = details: background; cited from earlier work
P-815(H-2d) = assay: Acute GVHD model: cytotoxic T cell activity of donor on host; type: in vivo, mice (BDF1 hosts, C57BL/6N donors); details: oral, once a day, 12 to 13 days after cell transfer
Text: (§2) A graft-versus-host disease (GVHD) model experiment was effected in accordance with the method reported by Durei et al. (J. Clin. Invest., 94, 1333 1994.).
(§3) As the indication of an acute GVHD model (1), use was made of the cytotoxic T cell activity of a donor on a host. As the indication of a chronic GVHD model (2), use was made of the blood antiDNA antibody titer.
In the transplantation, BDF1 mice (H-2b/d) and C57BL/6N mice (H-2b) were employed respectively as the hosts and donors. 5×10^7 /mouse of donors' spleen cells were transferred into the hosts via the tail vein. 4-{2-[5-(4,7-Dimethylbenzofuran-2-yl)pyrrolyl]}benzoic acid (compound A) was suspended in a 0.5% aqueous solution of methylcellulose and then orally administered to the hosts once a day from the first day of the cell transfer to the day before the measurement of the cytotoxic T cell activity. The 0.5% aqueous solution of methylcellulose alone was similarly administered to the control group. 12 to 13 days after the cell transfer, the spleen of each host animal was taken out and a suspension of the spleen cells to be used as effector cells was prepared. As the target cells, use was made of P-815(H-2d) which were cultured together with the effector cells for 4 hours. The cytotoxicity (%) was expressed as the percentage of ^51 Cr liberated into the culture supernatant during this culture time to the total radioactivity.

[2] = tested on: serum antiDNA antibody titer (IgG class); assay: Chronic GVHD model: serum antiDNA antibody titer (ELISA); type: in vivo, mice (BDF1 hosts, DBA/2 donors); details: oral, once a day, two weeks after cell transfer
Text: as §2, §3
In the transplantation, BDF1 mice (H-2b/d) and DBA/2 mice (H-2d) were employed respectively as the hosts and donors. 5×10^7 /mouse of donors' spleen cells were transferred into the hosts via the tail vein. 4-{2-[5-(4,7-Dimethylbenzofuran-2-yl)pyrrolyl]}benzoic acid was dissolved in a 0.5% aqueous solution of methylcellulose and then orally administered to the hosts once a day from the first day of the cell transfer to the day before the blood sampling. The 0.5% aqueous solution of methylcellulose alone was similarly administered to the control group. Two weeks after the cell transfer, the blood of each host animal was sampled and the serum antiDNA antibody titer (IgG class) was measured by the ELISA method.

RAR-β [3] = biological target: T2, RAR-β; assay: Receptor binding assay, RAR-β
Text: as §1

chronic GVHD = details: cyclosporin A and prednisolone, bone marrow transplantation patients; cited from earlier work
immune system = details: background; cited from earlier work

Row | Compound | Transcriptional promotion activity, Relative ED30, RAR-α (RAR-α) | Transcriptional promotion activity, Relative ED30, RAR-β (RAR-β [1]) | Transcriptional promotion activity, Relative ED30, RAR-γ (RAR-γ) | also measured
1 | O=C(O)c1ccc(-c2ccc(-c3cc4c(F)ccc(Cl)c4o3)[nH]2)cc1 | 0.33 | 91 | 790 | 
2 | O=C(O)c1ccc(-c2ccc(-c3cc4c(C(F)(F)F)ccc(F)c4o3)[nH]2)cc1 | 0.33 | 8.1 | 95 | 
3 | Cc1ccc(C)c2c(F)c(-c3ccc(-c4ccc(C(=O)O)cc4)[nH]3)oc12 | 0.39 | 2.8 | 31 | 
4 | CCc1ccc(C)c2cc(-c3ccc(-c4ccc(C(=O)O)cc4)[nH]3)oc12 | 0.26 | 24 | 120 | 
5 | CC1(C)CCC(C)(C)c2nc(-c3ccc(-c4ccc(C(=O)O)cc4)[nH]3)cnc21 | 0.21 | 1.4 | 19 | 
6 | CC1=C(/C=C/C(C)=C/C=C/C(C)=C\C(=O)O)C(C)(C)CCC1 [13-cis-retinoic acid] |  |  |  | secondary inflammation in rat adjuvant arthritis (rat adjuvant arthritis): significantly suppressed
7 | Cn1cnc([N+](=O)[O-])c1Sc1ncnc2nc[nH]c12 [azathioprine] |  |  |  | side effects (patients): bone marrow depression, hepatic disorder, pancreatitis, digestive tract symptoms, cardiopalmus and respiratory disorder
8 | Cc1ccc(C)c2oc(-c3ccc(-c4ccc(C(=O)O)cc4)[nH]3)cc12 [compound A, 4-{2-[5-(4,7-Dimethylbenzofuran-2-yl)pyrrolyl]}benzoic acid] |  |  |  | minimal effective dose (P-815(H-2d); Mus musculus, P815, read-out: dose from which induction of the cytotoxic T cell activity was inhibited dose-dependently): ≥ 0.1 mg/kg; induction of the cytotoxic T cell activity (P-815(H-2d)): strongly inhibited the induction of the cytotoxic T cell activity dose-dependently; minimal effective dose ([2]; Mus musculus, 336 h, read-out: dose from which serum antiDNA antibody titer was inhibited dose-dependently): ≥ 0.3 mg/kg; serum antiDNA antibody titer [2]: strongly inhibited the serum antiDNA antibody titer dose-dependently
9 | O=C(O)c1ccc(-c2ccc(-c3cc4c(Cl)ccc(Cl)c4o3)[nH]2)cc1 [drawing 8] |  |  |  | IC50 (RAR-β [3]): 0.5 µM
10 | Cc1ccc(C)c2oc(-c3ccc(-c4ccc(C(=O)O)cc4)[nH]3)cc12 [drawing 14] | 0.4 | 13 | 191 | 
11 | O=C(O)c1ccc(-c2ccc(-c3cc4c(Cl)ccc(Cl)c4o3)[nH]2)cc1 [drawing 15] | 1.0 | 160 | 1400 | 
12 | CN(Cc1cnc2nc(N)nc(N)c2n1)c1ccc(C(=O)N[C@@H](CCC(=O)O)C(=O)O)cc1 [methotrexate] |  |  |  | side effects (patients): bone marrow depression, hepatic/renal function disorder, mucosal disorder, psychoneurosis, interstitial pneumonia, pulmonary fibrosis, etc.
13 | C[C@]12C=CC(=O)C=C1CC[C@@H]1[C@@H]2[C@@H](O)C[C@@]2(C)[C@H]1CC[C@]2(O)C(=O)CO [prednisolone] |  |  |  | effect on chronic GVHD (chronic GVHD): no satisfactory effect; side effects (patients): induced infectious diseases, peptic ulcer, etc.
14 | CC1=C(/C=C/C(C)=C/C=C/C(C)=C/C(=O)O)C(C)(C)CCC1 [retinoic acid] |  |  |  | effect on the immune system (immune system): suppressive effect on the immune system
15 | C=CC[C@@H]1/C=C(\C)C[C@H](C)C[C@H](OC)[C@H]2O[C@@](O)(C(=O)C(=O)N3CCCC[C@H]3C(=O)O[C@H](/C(C)=C/[C@@H]3CC[C@@H](O)[C@H](OC)C3)[C@H](C)[C@@H](O)CC1=O)[C@H](C)C[C@@H]2OC [tacrolimus (FK 506), tacrolimus] |  |  |  | side effects (patients): renal function disorder, shock, elevation of blood pressure, heart failure, pancreatitis,hemolytic-uremic syndrome, thrombotic thrombopenia, purpura and hyperglycemia
